From patent publication US20220022513A1 (INTERNATIONAL FLAVORS & FRAGRANCES INC., priority 2018, published 2022)

Assays:
Format in all cases: in vivo
[1] = Sensory evaluation of sebacic acid and traumatic acid in sweetened milk; details: for sweetness and mouthfeel of sweetened milk: 2 ppm (each) in sweetened milk; for Taste Evaluation: 2 ppm (each) in sweetened milk (2% fat milk with 2% sucrose), versus base
Protocol: Sweetened milk (2% fat milk with 2% sucrose) was prepared and used as a base solution (“base”).

[2] = Descriptive sensory evaluation (taste modulation) of sebacic acid in different applications
Protocol: Descriptive sensory evaluations were carried out using different amounts of sebacic acid in different applications.

[3] = Sensory evaluation of sebacic acid at different amounts in sugar water
Protocol: Sugar water (4% sucrose in drinking water) was prepared and used as a base solution.

SMILES: O=C(O)CCCCCCCCC(=O)O [Sebacic acid, sebacic acid]
- sweetness and mouthfeel of sweetened milk [1]: increased sweetness and mouthfeel
- Taste Evaluation [1]: Sweeter and more mouthfeel
- Taste Evaluation ([2]; 7.5 ppm in 3% Sugar-Sweetened Full Fat Milk): Increases fatty perception
- Taste Evaluation ([2]; 7.5 ppm in Mixed Berry Yogurt Smoothie (1% Fat, 9% Sugar, 3% Protein)): Cuts sour end, increased
- Taste Evaluation ([2]; 15 ppm in Strawberry Flavored Yogurt (5% Sugar, 0.4% Fat, 8.7 Grams Protein)): Sweet up front, more
- Taste Evaluation ([2]; 40 ppm in 3% Sugar + 0.05% Citric Acid Water Solution): Fatty and oily
- Taste Evaluation ([2]; 40 ppm in Water, compared to same application without sebacic acid): Fatty and oily
- Taste Evaluation ([3]; 0.02 ppm in sugar water (4% sucrose in drinking water)): Slight sweet and mouthfeel
- Taste Evaluation ([3]; 1000 ppm in sugar water (4% sucrose in drinking water)): Strong sweet and mouthfeel

SMILES: O=C(O)/C=C/CCCCCCCCC(=O)O [Traumatic Acid, traumatic acid]
- sweetness and mouthfeel of sweetened milk [1]: increased sweetness and mouthfeel
- Taste Evaluation [1]: Sweeter and more mouthfeel
